Measurements from patent US20240148835A1, “TREATING DISORDERS ASSOCIATED WITH DYRK1A DYSFUNCTION” (UNIVERSITY OF FLORIDA RESEARCH FOUNDATION, INCORPORATED, priority 2021, published 2024).
“Also recorded” adds a separate entry of the source.

System: neonatal cHets
Assay: Neonatal GSK3 inhibitor SB216763 treatment: cortex mass, isotropic fractionator cell number and density
Assay type: in vivo, mouse
Protocol: We utilized the previously mentioned neonatal paradigm to inject cHets daily with GSK3 inhibitor SB216763 or vehicle from P0 to P7 (FIG. 25A).
(1-3)IGF-1 was acquired from VWR/Bachem (catalog #H-2468.1000) and dissolved in saline with 0.01% BSA fresh every day. Intraperitoneal injections of 10 mg kg′ (1-3)IGF-1 or vehicle were delivered daily at 8 a.m. starting on P14 and ending on P85. […] The S6K1 inhibitor PF-4708671 was acquired from Medkoo Biosciences (#406432) dissolved in 10% DMSO, 10% tween 80 and 80% water. (1-3)IGF-1 (10 mg kg′) and PF-4708671 (50 mg kg^−1) or vehicle were injected subcutaneously into pups from P0 to P7. Rapamycin was acquired from LC laboratories (R-5000) and dissolved in 4% ethanol, 5% tween-80, and 5% PEG400 in PBS. (1-3)IGF-1 (10 mg kg′) and Rapamycin (1 mg kg′) or vehicle were injected subcutaneously into pups from P0 to P7. SB216763 was acquired from TOCRIS (#1616) and dissolved in 5% DMSO and 0.9% saline in dH20. SB216763 (0.5 mg kg′) was injected subcutaneously into pups from P0 to P7.
Adult animals were perfused with 4% PFA, and pups underwent rapid decapitation and dissection. Brains were fixed in 4% PFA for one week, and then the cortex was dissected out and dissociated in a 7 ml glass tissue homogenizer (Kontes Glass) in dissociation buffer (1% Triton X-100 in 40 mM sodium citrate). 1 ml of nuclei was removed and stained with 1:50 DAPI (Invitrogen, catalog #D3571) before being loaded onto a hemocytometer (Fisher Scientific, catalog #0267110). Per animal, 6 technical replicates of 10 μl nuclei were imaged and counted in the hemocytometer (0.1 μl nuclei counted per technical replicate). After calculating the total cell number per cortex, the number of cells was divided by mg of cortex to obtain density.

[1] = 0.5 mg kg subcutaneous daily P0 to P7

Cn1cc(C2=C(c3ccc(Cl)cc3Cl)C(=O)NC2=O)c2ccccc21 [SB216763]
cellular density [1]: no effect on cellular density; also recorded: unaltered by any genotype or treatment | cortex mass of controls [1]: no effect; also recorded: unaltered by treatment | cortical cell number of cHets [1]: restored the decreased cellular number; also recorded: restored by SB216763 treatment | cortical cell number of controls [1]: no effect on SB216763-treated controls | cortex mass of cHets (0.5 mg kg subcutaneous daily P0 to P7, vs vehicle-treated controls): normalized cortex mass; also recorded: restored by treatment with SB216763
